In patent US8017125B2, “Copolymers for suppression of autoimmune diseases, and methods of use” (President and Fellows of Harvard College, priority 2001, dated 2011):

Assays:
HLA-DR-2 molecules = biological target: T1, HLA-DR-2 molecules (Homo sapiens, UniProt P01903+P01911); assay: Competitive binding of biotinylated MBP 86-100 to HLA-DR-2 molecules; conditions: biotinylated MBP 86-100 0.13 μM, 40 hr at 37° C.
T1 construct: Recombinant water-soluble HLA-DR-2 molecules were incubated with biotinylated MBP 86-100; Soluble HLA-DR-2 molecules were expressed in Drosophila S2 cells; made in house; host or cells: Drosophila S2 cells
Procedure: Protein expression and purification. Soluble HLA-DR-2 molecules were expressed in Drosophila S2 cells and purified as described (Kalandadze, A. et al. 1996. J. Biol. Chem. 271:20156-20162). Cells were grown at 26° C. in roller bottles in ExCell 401 medium (JRH Biosciences, Lenexa, Kans.) supplemented with 0-5% fetal bovine serum (Sigma Chemicals, St. Louis, Mo.). Cells were harvested 4-5 days after induction by 1 mM CuSO4. Supernatant from harvested cells was sequentially passed through Protein A, Protein G and Protein A-LB3.1 columns, followed by elution of the bound HLA-DR with 50 mM 3-[cyclohexylamino]-1-propanesulfonic acid (CAPS), pH 11.5, and neutralized with 200 mM phosphate (pH 6.0). Proteins were concentrated on a Centriprep 10 membrane (Amicon, Beverly, Mass.).
(A). Solutions. The solutions used in this assay are the following: binding buffer is 20 mM 2-[N-morpholino]ethanesulfonic acid (MES), 140 mM NaCl, 0.05% NaN3, pH 5.0, unless otherwise specified; PBS is 150 mM sodium chloride, 7.5 mM sodium phosphate, dibasic, 2.5 mM sodium phosphate, monobasic, pH 7.2; TBS is 137 mM sodium chloride, 25 mM Tris pH 8.0, 2.7 mM potassium chloride; TTBS is TBS plus 0.05% Tween-20. (B). […] Bound peptide-biotin was detected using streptavidin-conjugated alkaline phosphatase, as follows. […] Absorbance at 410 nm was monitored by a microplate reader (model MR4000; Dynatech, Chantilly, Va.).

[1] = system: EAE induced by WSCH in SJL/J mice; assay: Suppression of EAE induced by WSCH; type: in vivo; conditions: for Incidence (mice with clinical signs of EAE / total immunized mice): SJL/J mice coinjected s.c. with 500 μg WSCH and 500 μg copolymer, observed 40 days
Procedure: (§1) Induction and suppression of EAE. […] Mice were scored daily for clinical signs of EAE on a scale 1-5, according to the severity of disease symptoms as previously described (Santambrogio, L. et al. 1993. J. Immunol. 151: 1116). For determination of suppression of EAE, each copolymer (500 μg/mouse) was mixed and injected with the encephalitogenic emulsion as described above.
To find out whether VEAK and FEAK random copolymers affected the clinical course of EAE in SJL/J mice, a number of in vivo experiments were performed. The protocol for disease induction was subcutaneous injection to co-immunize with both WSCH (500 μg) and each copolymer (500 μg), similar to the protocol of previous studies of suppression of EAE by Cop1 (Teitelbaum, D. et al. 1996. J. Neuroimmunol. 64:209-217). Following disease induction, mice were observed daily for 40 days for appearance of typical clinical signs of EAE (Table 1).

[2] = system: Hy1B clone (MBP 84-102-specific TCR transfectant); assay: Antigen presentation assay, Hy1B T cell clone; type: cell-based; conditions: MGAR APC, MBP 85-99 12.5 μM (FIG. 1C)
Text: (§2) Antigen presentation assays.

[3] = system: H-2s-restricted PLP 139-151-specific T cell hybridoma hPLP/c4; conditions: SJL/J splenocytes, PLP 139-151 24 μM, copolymer 28 μM (FIG. 2C)
[4] = system: EAE induced by PLP 139-151 in SJL/J mice; assay: Suppression of EAE induced by PLP 139-151 peptide; type: in vivo; conditions: for Maximum mean score: clinical scale 1-5; for Incidence (mice with clinical signs of EAE / total immunized mice): Example 10: SJL/J mice co-injected with 50 μg PLP 139-151 and 500 μg copolymer, observed 70 days
Procedure: as §1
To find out whether random copolymers provided herein might affect development of chronic-relapsing EAE, mice were injected subcutaneously with 50 μg of PLP 139-151 (SEQ ID NO: 4; the encephalitogenic epitope in the SJL/J strain) alone, or with 50 μg of PLP 139-151 (SEQ ID NO: 4) and 500 μg of the copolymer. Mice were examined on a daily basis for 90 days after the induction of the disease.
In vivo experiments were carried out to determine whether the Y- and F-containing 50-mer random copolymers would affect the clinical course of EAE in SJL/J mice. As in Examples above, the protocol for co-immunization was subcutaneous injection of SJL/J mice with, in this example, the encephalitogenic epitope PLP 139-151 (SEQ ID NO: 4; 50 μg) and a copolymer preparation (500 μg). Following disease induction, mice were observed daily for appearance of typical signs of EAE, during a period of 70 days.

MS patients = conditions: cited from earlier work
[5] = system: 2E12 T cell clone (MBP 84-102-specific hybridoma from HLA-DR-2-transgenic mice); assay: Antigen presentation assay, 2E12 T cell clone; type: cell-based, mouse; conditions: L466 APC, MBP 85-99 4 μM (FIG. 1A)
Text: as §2

[6] = system: EAE induced by MBP 85-99 in humanized mice carrying HLA DR-2 and TCR transgenes; assay: Suppression of EAE induced by MBP 85-99 in humanized mice; type: in vivo; conditions: for Clinical score (severity of symptoms): 50 days
Text: Mouse strains. SJL/J (H-2^s) mice (8-12 weeks of age) were purchased from Jackson Laboratories (Bar Harbor, Me.) and were maintained in the animal facility at Harvard University according to the Guidelines of the Committee on Animals of Harvard University and the Committee on Care and Use of Laboratory Animal Resources, National Research Counsel (Department of Health and Human Services Publication 85-23, revised 1987).
Experimental animals were humanized mice carrying transgenes HLA DR-2 (DRA* 0101 and DRB1* 1501) and TCR from MS patient […], which is a V(D)J rearrangement of TCRα and TCRβ, amplified from clone Ob.1A12. Mice in each group were injected with MBP 85-99 (SEQ ID NO: 2) subcutaneously to induce EAE. […] Clinical symptoms were monitored over a course of 50 days on days indicated.

[7] = system: H-2s-restricted PLP 139-151-specific T cell hybridoma hPLP/1; assay: Antigen presentation assay, hPLP/1 hybridoma; type: cell-based, mouse; conditions: SJL/J splenocytes, PLP 139-151 24 μM, copolymer 28 μM (FIG. 2B)
Text: as §2

[8] = SJL/J mice, 500 μg WSCH + 500 μg copolymer
[9] = Example 10: 50 μg PLP 139-151 + 500 μg copolymer
[10] = Example 10: 50 μg PLP 139-151 + 500 μg copolymer, listed as Copaxone®

ENPVVHFFKNIVTPR [MBP 85-99]
Inhibition of binding of biotinylated MBP 86-100 to HLA-DR-2 molecules (HLA-DR-2 molecules): inhibited most efficiently

Glatiramer acetate [Copaxone ®]
Incidence (mice with clinical signs of EAE / total immunized mice) [1]: 1/14
Incidence (mice with clinical signs of EAE / total immunized mice) ([1]; listed as Copaxone®): One out of fourteen
Mean day of onset [1, 8]: 20.0 days
Percent disease [1, 8]: 7%
Percent mortality [1, 8]: 0%
Maximum mean score ([1]; SJL/J mice, 500 μg WSCH + 500 μg copolymer, clinical scale 1-5): 3.0
Mean day of onset ([1]; SJL/J mice, 500 μg WSCH + 500 μg copolymer, listed as Copaxone®): 20 days
Effect on course of EAE induced by WSCH (in words) ([1]; co-immunization, 500 μg copolymer): suppressed EAE
Inhibition of the Hy1B clone [2]: best inhibitor
Inhibition of hPLP/c4 hybridoma [3]: best inhibited
Day of first attack ([4]; Example 6): 26 days
Day of peak of first attack ([4]; Example 6): 34 days
Mean maximal score ([4]; Example 6): 1.25
Mortality ([4]; Example 6: 50 μg PLP 139-151 + 500 μg copolymer, 90 days): 12%
Mice with clinical signs of EAE out of group ([4]; Example 6: 50 μg PLP 139-151 + 500 μg copolymer, observed 90 days): two out of eight
Mean day of onset [4, 9]: 22.7 ± 7.1 days
Percent disease [4, 9]: 75%
Percent mortality [4, 9]: 6%
Maximum mean score [4, 9]: 2.6 ± 1.6
Maximum mean score [4, 10]: 2.6
Mean day of onset [4, 10]: 22 days
Incidence (mice with clinical signs of EAE / total immunized mice) [4]: 12/16
Incidence (mice with clinical signs of EAE / total immunized mice) ([4]; listed as Copaxone®): 12 of 16
Reduction of frequency of relapse (MS patients): about 30%
Toxicity (MS patients; wide use): little or no toxicity
Inhibition of binding of biotinylated MBP 86-100 to HLA-DR-2 molecules (HLA-DR-2 molecules): inhibited most efficiently
Inhibition of proliferation of the 2E12 T cell clone [5]: efficient
Number of time points with symptoms ([6]; co-immunized): nine
Clinical score (severity of symptoms) ([6]; co-immunized on day 0 with 500 μg copolymer and 50 μg MBP 85-99): 2 to 3
Number of time points with symptoms ([6]; pre-immunized): 14 time points
Stable level of symptoms (severity) ([6]; pre-immunized): greater than 1
Clinical score (severity of symptoms) ([6]; pre-immunized two days prior to EAE induction): greater than 3
Inhibition of proliferation of hPLP/1 hybridoma [7]: best inhibited
